The structures appear in SMILES notation. Where two headings read alike, the source gives them in different places.

Experiment [1] relates to HaVg1 gene expression. Conditions: hepatopancreas explant, cited from earlier work.
Experiment [2] has as its system expression of vitellogenin. Particulars: red crab; cited from earlier work.
In experiment [3] the test system is gonad maturation. Description: Example 2: FA injection into female shrimp, gonadosomatic index. The format is in vivo. Conditions: FA 1 μg/g of body weight, day 6. How it is done: Farnesoic acid (FA) is known to be able to stimulate vitellogenin synthesis in crab, shrimp and lobster. Stock of FA is prepared in ultra-pure mineral oil and female shrimp will be injected with FA.
Fifty female shrimp are injected with FA through the arthropodial membrane (e.g. at 1 μg/g of body weight) 1 day after they molt. After injection, the shrimp is returned to the culture tank for culture. A group of 10 shrimps are randomly selected at a 24-hour interval. 50 μl of hemolymph sample will be taken from the shrimps for analyzing the vitellogenin level by ELISA. On day 6, all the shrimps will be sacrificed and their ovary will be weighted for estimating the gonadosomatic index (GSI), which is the ratio of ovary weight to total body weight. A control group is also setup in which the shrimps are injected with the same volume of mineral oil without any FA. Shrimps injected with FA should have a higher ovary weight to total shrimp weight than the control.

`CC(C)(O)CC[C@@H](O)[C@](C)(O)[C@H]1CC[C@@]2(O)C3=CC(=O)[C@@H]4C[C@@H](O)[C@@H](O)C[C@]4(C)[C@H]3CC[C@]12C` [20E, 20-hydroxyecdysone]: in experiment [1] (0.7 μM 20E), the “increase in HaVg1 gene expression” value is reported as 2.2 fold.

For the compound `CC(C)=CCCC(C)=CCCC(C)=CC(=O)O` [FA, farnesoic acid], the expression of vitellogenin result in experiment [2] is listed as “stimulate”. Also, in experiment [3], the “ovary weight to total shrimp weight (GSI) versus control” value is given as “higher”. The “increase in HaVg1 gene expression” value in experiment [1] (4.2 μM FA) is on record as 2 fold.

Source of the values: US20160346356A1, “USE OF RNA INTERFERENCE, FARNESOIC ACID AND RECOMBINANT PROTEIN APPROACH TO INDUCE GONAD MATURATION IN CRUSTACEAN SPECIES” (priority 2013, published 2016).
